Source: a melting point compilation (Tetko et al.; mined from patent text by program, amines drawn as free bases though some values may be those of a salt)

melting point	SMILES
171 to 172 °C	Nc1cc(Nc2cccc(Cl)c2)ncn1
167 to 170 °C	COc1cc(C=C2CCN(C(=O)NOCc3ccccc3)C2=O)cc(OC)c1O
123 to 125 °C	CCCCCCCCCCCCc1cnn(C(C(=O)Nc2c(OC)cc(OC)cc2OC)c2ccccc2)n1 (stereo unspecified)
116 to 117 °C	O=c1ccc2ccc(CO)cc2o1
167 °C	COc1cccc(CCN2C(=O)c3ccccc3C2(O)c2ccc(C(F)(F)F)cc2)c1 (stereo unspecified)
113 to 115 °C	COc1ccc(N(N)c2cc(Cl)nc(Cl)n2)cc1
81 to 89 °C	COc1ccc(Cn2c(=O)c3c(N4CCN(C)CC4)cc(Cl)cc3n(Cc3ccccc3)c2=O)cc1
103 to 106 °C	CCCCn1c(CC)ccc1Cc1cccc(NC(N)=O)c1
177 to 178 °C	COc1ccc(S(=O)(=O)N2CCc3cccc(-c4ccc(Cl)cc4)c32)cc1
157 to 159 °C	COc1cc(C(=O)Cc2ccc(O)cc2)c(O)cc1O
104 to 106 °C	Nc1cnccc1Oc1ccc(Cl)cc1
97 to 100 °C	CC=CCOc1ccc(C(=O)C=Cc2cccc(OC)c2)c(O)c1
195 to 196 °C	CCOc1cc(Oc2ccc(S(C)(=O)=O)nc2)cc2cc(C3=NCC(CC(N)=O)S3)[nH]c12 (stereo unspecified)
202 to 203 °C	CNC(=O)c1ccccc1Nc1nc(Nc2ccc3c(c2)CCC(NCC(F)(F)F)CC3)ncc1Cl (stereo unspecified)
229 to 230 °C	CCNC(=O)Nc1cc(-c2c(-c3ccc(F)c(C)c3)nc3c(C)cc(Cl)nn23)ccn1
205 to 206 °C	O=C(COc1cccc(CCNS(=O)(=O)c2ccc(Br)cc2)c1)Nc1nnn[nH]1

melting point	SMILES
169 to 171 °C	COc1cc2c(cc1OC)C(Cc1cc(I)c(N)c(I)c1)NCC2 (stereo unspecified)
135 °C	CCc1nn(CCO)c(N)c1Cc1cc(Cl)cc(Cl)c1
152 to 156 °C	Cc1ncc(CN2C(=O)c3ccccc3C2=O)n1-c1ccc(Cl)cc1Cc1ccccc1F
180 °C	CCOC(=O)c1cc2c(Cl)cc(Cl)cc2[nH]1
160 °C	CC(CNc1nc(Cl)ncc1Cl)NS(C)(=O)=O (stereo unspecified)
297 to 299 °C	COc1ccc2c(Cc3c(Cl)cncc3Cl)nnc(NN)c2c1
185 to 187 °C	COc1c(NC(=O)c2ccc(Br)cc2)ccc2cc(CO)cnc12
> 315 °C	CCCn1c(=O)n2c(-c3ccc(C(=O)O)cc3)nnc2c2c1ncn2C
210 to 212 °C	CCc1nc(OC)c(NC(=O)N2CCN(c3cc(Cl)cc(Cl)c3)CC2)cc1C(=O)Nc1cc(CO)cc(Nc2c3ccccc3nc3ccccc23)c1
108 to 110 °C	C=C(c1cc(F)ccc1OCc1c(Cl)cccc1Cl)n1ccnc1
297 to 298 °C	O=C1c2ccc(-c3nnn[nH]3)cc2C(=O)c2cc(N3CCCCC3)ccc21
242 to 245 °C	CCCc1nc2c(N)nc3ccc(-c4cccc(NC(C)=O)c4)cc3c2s1
205 to 207 °C	CCCCOc1nc(N)c2[nH]c(=O)n(CCSc3cccc(CC(=O)O)c3)c2n1
202 to 204 °C	CCCOc1ccc(S(=O)(=O)NCCN(C)C)cc1-c1nc2cc(N)c(N)cc2c(=O)[nH]1
184 to 185 °C	CNC(=O)Nc1c(C)nn(-c2cc(OC(C)C)c(Cl)cc2F)c1C
140 to 141 °C	COCC(=O)Nc1cccc(-c2ccnc(NCCc3ccc(OC)c(OC)c3)n2)c1

The next lines start with the compound.

SMILES	melting point
Cc1cccc(C)c1CS(=O)(=O)NCCc1c(CCCc2ccc(C(=O)O)cc2)c2cc(Cl)ccc2n1C(c1ccccc1)c1ccccc1	193 °C
NC(=O)c1cccc2c1C1(COc3cc4c(cc31)OCCO4)CN2Cc1ccccn1 (stereo unspecified)	214 to 215 °C
CC(C#N)c1ccc(O)c([N+](=O)[O-])c1 (stereo unspecified)	78 to 81 °C
Cc1oc(-c2ccccc2)nc1COc1ccc(CCc2oc(-c3ccccc3)nc2CC#N)cc1	97 to 98 °C
CCCCCCCCc1c(N)nc(-n2cncn2)nc1CC	90 to 91 °C
OC(Cn1cncn1)(c1ccc(F)cc1)C(F)(F)C(F)(F)C(F)(F)F (stereo unspecified)	126 to 127 °C
O=C1c2cccc(NC(=S)Nc3ncccn3)c2C2CCCCN12 (stereo unspecified)	212 °C
CC(C)(C)[Si](C)(C)O[C@H](/C=C/[C@@H]1[C@H]2CC(=O)O[C@H]2C[C@H]1O[Si](C)(C)C(C)(C)C)COc1cccc(C(F)(F)F)c1	91 to 93 °C
COc1cc(OCCCN(C)Cc2ccc(OC)c(OC)c2)ccc1NC(=O)c1cccc2c(=O)c3cccc(C)c3[nH]c12	156 to 157 °C
CON=C(C(=O)OC)c1ccccc1CSc1nc2ccccc2s1	113 to 114 °C
CN1C(=O)C(c2ccccc2)Oc2cccc3nc4c(c1c23)CCCC4 (stereo unspecified)	188 to 189 °C
COC(=O)c1[nH]c(Br)c(Br)c1OC(C)C	124 to 125 °C
CN(C)C(=O)c1cc(-c2ccccc2)c(=O)n2c1-c1cc(Cl)ccc1CN2	250 to 252 °C
CCCCCCCCCCc1nc(N(C)C)nc(C)c1O	71 to 72 °C
CCOC(=O)COCc1nnc(S)o1	101 to 103 °C
Cc1nnc(-c2cccs2)c(=O)n1N	210 °C
COCCCC#Cc1ccccc1S(N)(=O)=O	59 to 61 °C
CC(=O)N[C@H]1CC[C@H](ON2C(=O)c3ccccc3C2=O)CC1	210 to 213 °C
O=C1CC[C@H]2N1CCN1C(=O)C[C@H]3CCCC[C@@]321 (relative stereo)	135 to 136 °C
c1ccc2c(c1)CCc1c-2noc1N1CCNCC1	97 to 99 °C
Cc1nc[nH]c1CSCCNc1cc[nH]c(=O)n1	249 to 251 °C
Cc1nc2cccc(N)c2c(=O)n1[C@@]1(C)CCC(=O)NC1=O	295 to 297 °C

SMILES	melting point
Fc1ccc(-n2ccc3cc(-c4cccnc4)ccc32)cc1	108 to 110 °C
CN(C)Cc1cccc(C(F)(F)C(F)(F)c2ccccc2)c1CN	71 to 83 °C
Cc1ccccc1Nc1nc2ccc(CC(=O)Nc3ccc(C4(CC(=O)O)CCCC4)cc3)cc2o1	123 to 126 °C
CS(=O)CCN1C(=O)CN=C(c2ccccc2)c2cc(Cl)ccc21 (stereo unspecified)	166 to 167 °C
COc1ccc(S(=O)(=O)N2C(=O)C(c3ccccc3OC)(N3Cc4ccccc4C3C(=O)N(C)C)c3cc(Cl)ccc32)c(OC)c1 (stereo unspecified)	168 °C
Cc1ccc(NC(=O)C(CS)Cc2ccccc2)c(C)c1C(=O)O (stereo unspecified)	180 to 181 °C
C=CCc1cc2c(cc1O)C(C)(C)C(CCO)O2 (stereo unspecified)	55 to 58 °C
Cc1noc(NS(=O)(=O)c2cc(Br)c(Cl)s2)c1Br	143 to 145 °C
CN(C(=O)OC(C)(C)C)c1cc(Oc2cc(C(C)(C)C)c(O)cc2C(C)(C)C)ccc1N	208 to 210 °C
O=C1C=C[C@H]2N1CCN1C(=O)C[C@H]3CCCC[C@@]321 (relative stereo)	159 to 162 °C
COc1cc(F)ccc1-c1ccc(S(=O)(=O)N2c3ccccc3CC2C(=O)NCc2ccccc2N)cc1 (stereo unspecified)	92 to 97 °C
COC(=O)NC1=NC(c2cccc(O)c2)CN1 (stereo unspecified)	180 to 183 °C
CC1SCN(CCCCN2CCN(c3nsc4ccccc34)CC2)C1=O (stereo unspecified)	113 to 115 °C
O=c1[nH]c(=O)n(C2CC(F)C(CF)O2)cc1C=CBr (stereo unspecified)	177 to 180 °C
CCOC(=O)C(=NOC)c1csc(NC(=O)OCC(Cl)(Cl)Cl)n1	125 to 128 °C
CC(=O)OC1CSC(Oc2ccc(C)nc2)C(OC(C)=O)C1OC(C)=O (stereo unspecified)	130 °C
CC(=O)OCc1c(C(=O)C(=O)O)c2cc(-c3cccc(C)c3)ccc2n1Cc1ccc(C(C)(C)C)cc1	91 to 92 °C
O=S(=O)(c1ccc2c(Cl)cccc2c1)N1CC2CC1CO2 (stereo unspecified)	132 to 133 °C
CC(C)(C)OC(=O)N[C@@H](CC1CCCCC1)[C@@H]1C[C@@H](C2(O)CCCCC2)C(=O)O1	133 to 134 °C
CC(=O)Nc1cccc(OC2CCNCC2)c1	164 to 165 °C
CC(C)(C)OC(=O)N1CCC(NC(=O)Nc2ccc(OC(F)(F)F)cc2)CC1	160 to 162 °C
Fc1ccc(-c2nc(=S)c3c(o2)CCCC3)cc1	148 to 149 °C

SMILES	melting point
O=C(NC1CC1)c1cc(Nc2nc(N3CCC[C@H]3CO)nc3ccoc23)n[nH]1	96.8 °C
COC(=O)c1ccnc(N2CCN(CC3CC3)C2=O)c1	75 to 77 °C
O=C(CCc1ccccc1)c1ccc(Cl)cc1	78 to 79 °C
O=C(Oc1ccccc1)N1CCC(Oc2ccc(F)cc2)CC1	98.5 to 100 °C
N#Cc1ccc(N(Cc2ccc(Br)cc2)n2cnnc2)cc1	203 °C
O=[N+]([O-])c1cccc(-n2cnnc2C(F)(F)F)c1	142 °C
CCn1cc(C(=O)O)c(=O)c2cc(F)c(N3CCN(c4ccccc4OC)CC3)c(OC(F)F)c21	219 to 222 °C
CCOC(=O)C1=C(C)Nc2cc[nH]c(=O)c2C1c1ccccc1F (stereo unspecified)	183 to 184 °C
CC(C)(C)OC(=O)N1CCC[C@@H](OC(=O)c2ccc(C(=O)c3ccccc3)cc2)[C@H](NC(=O)c2ccc(OC(C)(C)C)cc2)C1	145 to 148 °C
CCCCC1=NC(C)(C)C(=O)N1Cc1ccc(-c2ccccc2C(=O)OC(C)(C)C)cc1	98 to 100 °C
O=C(O)c1ccc(OCCNC(=O)C2Cc3ccccc3N2S(=O)(=O)c2ccc(-c3ccc(F)cc3)cc2)cc1 (stereo unspecified)	108 °C
COc1ccc(C(=O)Oc2ccc(C(=O)O)c(F)c2)cc1C12CC3CC(CC(C3)C1)C2	254 to 256 °C
CC(C)(C)OC(=O)c1ccc(N2CC(CN=[N+]=[N-])OC2=O)cc1F (stereo unspecified)	91 to 92 °C
CCc1ccc(CC)n1Nc1ccc(N2CCOCC2)nn1	186 to 189 °C
COC(=O)c1ccc(Nc2ccn(-c3ccccc3)n2)cc1	160 to 161 °C
Cc1nc2ccccc2c2c1OCCN2	203 to 204 °C
[N-]=[N+]=CC(=O)c1ccc(Br)c(S(N)(=O)=O)c1	152 °C
Nc1nc2ccccc2c2c1nc(-c1ccccc1)n2CCCCNC(=O)Nc1ccc(F)cc1	145 to 150 °C
CCN1c2ncccc2C(=O)Nc2c(C)cc(N3CCCCC3CCO)nc21 (stereo unspecified)	234 to 237 °C
O=[N+]([O-])c1cc(C(F)(F)F)c(Cl)c([N+](=O)[O-])c1Nc1cc(C(F)(F)F)cc(C(F)(F)F)n1	169 to 170 °C
